Earlier results as cited in patent US9321030B2, “Clay-containing thin films as carriers of absorbed molecules” (priority 2012, dated 2016).

What was measured:
[1] = tested on: multi-drug resistant strains of gram-positive and gram-negative bacteria; conditions: clinically relevant multi-drug resistant strains
[2] = tested on: Pseudomonas aeruginosa biofilms
[3] = tested on: Mycobacterium tuberculosis
S. aureus ATCC 12600 = conditions: known value

In the case of H—(NLys-Nspe-Nspe)4-NH2 [Peptoid 1], the “efficacy against planktonic cells” value [1] is listed as “demonstrated efficacy”, the activity against biofilms [2] is listed as “active” and the activity [3] is listed as “active”.

In the case of gentamicin, the minimum inhibitory concentration (S. aureus ATCC 12600) is listed as 1 µg/mL.
